Experimental data as given in US12162858B2, “Quinoline derivatives as inhibitors of AXL/MER RTK and CSF1R” (QURIENT CO., LTD., priority 2018, dated 2024).
Like-named read-outs stand apart in the source and are kept apart here.

What was measured:
Mer = biological target: T1, Mer (Homo sapiens, UniProt Q12866); test: LanthaScreen Eu kinase binding assay for Mer
T1 construct: purchased Life Technologies
T1 sequence (Q12866 21-999): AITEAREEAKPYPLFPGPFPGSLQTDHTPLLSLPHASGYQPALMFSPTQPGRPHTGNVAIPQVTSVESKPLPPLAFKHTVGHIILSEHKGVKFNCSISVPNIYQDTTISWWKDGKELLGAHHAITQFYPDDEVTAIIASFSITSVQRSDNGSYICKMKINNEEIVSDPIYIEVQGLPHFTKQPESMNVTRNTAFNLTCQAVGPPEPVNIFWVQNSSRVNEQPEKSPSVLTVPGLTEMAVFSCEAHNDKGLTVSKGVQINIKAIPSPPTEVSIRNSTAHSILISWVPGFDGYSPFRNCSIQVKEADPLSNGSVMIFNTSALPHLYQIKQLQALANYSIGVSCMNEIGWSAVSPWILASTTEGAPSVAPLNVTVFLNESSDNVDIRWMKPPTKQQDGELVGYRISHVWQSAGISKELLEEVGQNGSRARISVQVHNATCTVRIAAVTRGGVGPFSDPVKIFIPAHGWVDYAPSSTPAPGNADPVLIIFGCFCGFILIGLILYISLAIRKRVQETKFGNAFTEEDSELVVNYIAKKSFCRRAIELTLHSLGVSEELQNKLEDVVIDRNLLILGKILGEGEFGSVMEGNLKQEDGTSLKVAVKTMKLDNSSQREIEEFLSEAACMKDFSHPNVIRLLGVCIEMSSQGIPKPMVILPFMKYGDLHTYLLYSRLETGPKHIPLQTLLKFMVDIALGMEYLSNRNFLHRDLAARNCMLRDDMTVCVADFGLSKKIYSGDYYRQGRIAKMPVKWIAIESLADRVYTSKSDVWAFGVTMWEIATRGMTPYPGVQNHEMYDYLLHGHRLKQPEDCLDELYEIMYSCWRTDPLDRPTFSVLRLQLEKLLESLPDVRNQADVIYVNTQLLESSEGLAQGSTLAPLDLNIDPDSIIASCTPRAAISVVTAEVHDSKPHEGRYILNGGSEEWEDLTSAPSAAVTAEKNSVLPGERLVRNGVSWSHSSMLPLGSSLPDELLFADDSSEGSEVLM
Protocol: LanthaScreen® Eu Kinase Binding assays were conducted at Life Technologies using the manufacturer's specifications for each kinase indicated.
Briefly, the principle behind this assay is based upon the binding and displacement of an Alexa Fluor 647-labeled tracer to the kinase of interest. Binding of the tracer to the kinase is detected using an EU-labeled anti-tag antibody. Simultaneous binding of both the tracer and antibody to the kinase gives rise to a FRET-signal. Binding of an inhibitor to the kinase competes for binding with the tracer, resulting in a loss of FRET-signal.
A given compound was diluted in DMSO to make a stock compound solution. The stock compound solution was serially diluted over eight steps in DMSO. Each diluted compound solution in DMSO was diluted in kinase buffer. Afterwards four kinds of working solution were prepared. First, Tracer-Working solution consists of Tracer 236 and Kinase Buffer. Second, Axl, Mer, Tyro3 or Met/anti-GST-AB-Working solution contained one of the kinases Axl, and Mer or anti-GST-AB (=anti glutathione-S-transferase antibody) in Kinase Buffer. Third, anti-GST-AB-Working solution was made with anti-GST-AB and Kinase Buffer. Last, in the DMSO-Working solution DMSO was added to Kinase Buffer to a final concentration to 3%. Each of the four kinds of working solutions were separately added to the assay plate and then incubated for 1 h at room temperature. After incubation, the assay plate was measured with respect to the FRET-Signal with the EnVision (Perkin Elmer) using the program LanthaHTRF-Assay. Data evaluation was done in the Quattro Workflow software. Kd (the equilibrium dissociation constant) values were calculated relative to vehicle (DMSO) control wells.

CSF1R (M-NFS-60 cells) = test: Cell Titer-Glo viability assay using M-NFS-60 cells; type: cell-based; details: Mus musculus, read-out: Cellular CSF1R activity by M-NFS-60 viability assay (IC50 activity range)
Protocol: M-NFS-60 cells were cultured in RPMI-1640 medium containing 10% FBS, 0.05 mM 2-Mercaptoethanol, penicillin (100 U/ml)/streptomycin ([…]) and supplemented with 62 ng/ml recombinant human M-CSF at 37° C./5% CO2. Aliquots of the cells were seeded into a 96-well plate (2×10^5 cells in 100 μl/well) and then incubated at 37° C./5% CO2 1 h. Dissolve compound in 100% DMSO to make 10 mM stock solutions (Aliquots stored in the Nitrogen Cabinet). Dilute 10 mM compounds solutions for 2-fold in 100% DMSO to get 5 mM solutions (10 μl+10 μl DMSO), and then make a 3-fold serial dilution (10 μl+20 μl DMSO) for 10 doses. For reference compounds: Dilute 10 mM compounds solutions for 20-fold in 100% DMSO to get 0.5 mM solutions (2 μl+38 μl DMSO), and then make a 3-fold serial dilution (10 μl+20 μl DMSO) for 8 doses. The 96-well plate was equilibrated at room temperature for 30 min. 50 μl of CellTiter-Glo® Reagent added to each well and mixed for 2 min on an orbital shaker to induce cell lysis. The 96-well plate was incubated at room temperature for 10 min to stabilize luminescent signal. Luminescent was measured […] by EnVison plate reader. Calculations and Formulas: The following calculations and formulas are used for data analysis using XL Fit software: The curve fitting was made using the Sigmoidal Dose-Response Model (Fit model, 205).

[1] = read-out: Mer kinase binding activity (Kd)
[2] = comparison of compounds of present invention (**) vs compounds of WO2016/166250 (*), read-out: Binding activity Mer (Kd)

Structure (SMILES) | Kd (Mer; [1]) | IC50 (CSF1R (M-NFS-60 cells)) | Kd (Mer; [2])
COc1cc2nccc(Oc3ccc(NC(=O)c4nn(C5CCCC5)cc4OCC(F)(F)F)cn3)c2cc1OC [Compound 131] | < 100 nM | 1000 to 10000 nM | 
COc1cc2nccc(Oc3ccc(NC(=O)c4nn(CC5COC5)cc4OCC(F)(F)F)cc3)c2cc1OC [Compound 101] | < 100 nM | 1000 to 10000 nM | 
COc1cc2nccc(Oc3ccc(NC(=O)c4nn(C5CC5)cc4NCC(F)(F)F)nn3)c2cc1OC [Compound 148] | < 100 nM | 1000 to 10000 nM | 
COc1cc2nccc(Oc3ccc(NC(=O)c4nn(C5CCOC5)cc4OCC(F)(F)F)nn3)c2cc1OC (centres unmarked) [Compound 128] | < 100 nM | 1000 to 10000 nM | 
COc1cc2nccc(Oc3ccc(NC(=O)c4nn(CCOC5CC5)cc4OCC(F)(F)F)cc3F)c2cc1OC [Compound 116] | < 100 nM | 1000 to 10000 nM | 
COc1cc2nccc(Oc3ccc(NC(=O)c4nn(C5CC5)cc4OC(C)C)nn3)c2cc1OC [Compound 147] | < 100 nM | 1000 to 10000 nM | 
COc1cc2nccc(Oc3ccc(NC(=O)c4nn(C5CC5)cc4OCCF)nc3)c2cc1OC [Compound 110] | < 100 nM | < 1000 nM | 
COc1cc2nccc(Oc3ccc(NC(=O)c4nn(CC(C)O)cc4OCC4CCC4)nc3)c2cc1OC (centres unmarked) [Compound 163] | < 100 nM | 1000 to 10000 nM | 
COc1cc2nccc(Oc3ccc(NC(=O)c4nn(CC(C)C)cc4OCC(F)(F)F)cn3)c2cc1OC [Compound 103] | < 100 nM | 1000 to 10000 nM | 
COc1cc2nccc(Oc3ccc(NC(=O)c4nn(CCOC5CC5)cc4OCC(F)(F)F)cc3C)c2cc1OC [Compound 117] | < 100 nM | < 1000 nM | 
COc1cc2nccc(Oc3ccc(NC(=O)c4nn(C5CCCC5)cc4OCC(F)(F)F)nn3)c2cc1OC [Compound 121] | < 100 nM | < 1000 nM | 
COc1cc2nccc(Oc3ccc(NC(=O)c4nn(C5CC5)cc4OCC4COC4)nn3)c2cc1OC [Compound 161] | < 100 nM | 1000 to 10000 nM | 
COc1cc2nccc(Oc3ccc(NC(=O)c4nn(C5CC5)cc4OCC4CCC4)nc3)c2cc1OC [Compound 111] | < 100 nM | 1000 to 10000 nM | 
COc1cc2nccc(Oc3ccc(NC(=O)c4nn(C5CCN(C)C5)cc4OCC(F)(F)F)nn3)c2cc1OC (centres unmarked) [Compound 157] | 100 to 500 nM | 1000 to 10000 nM | 
COc1cc2nccc(Oc3ccc(NC(=O)c4nn(C5CC5)cc4OCC(F)(F)F)nn3)c2cc1OC [Compound 112] | < 100 nM | 1000 to 10000 nM | 
COc1cc2nccc(Oc3ccc(NC(=O)c4nn(C5CC5)cc4NCC(F)(F)F)nc3)c2cc1OC [Compound 145] | < 100 nM | < 1000 nM | 
COc1cc2nccc(Oc3ccc(NC(=O)c4nn(C5CC5)cc4OC(C)C)nc3)c2cc1OC [Compound 108] | < 100 nM | < 1000 nM | 
CCCn1cc(OCCN(C)C)c(C(=O)Nc2ccc(Oc3ccnc4cc(OC)c(OC)cc34)c(F)c2)n1 [Compound 165] | ≥ 500 nM | 1000 to 10000 nM | 
COc1cc2nccc(Oc3ccc(NC(=O)c4nn(CCOC5CC5)cc4OCC(F)(F)F)c(F)c3)c2cc1OC [Compound 115] | < 100 nM | 1000 to 10000 nM | 
COc1cc2nccc(Oc3ccc(NC(=O)c4nn(C5CCN(C)C5)cc4OCC(F)(F)F)cc3)c2cc1OC (centres unmarked) [Compound 100] | < 100 nM | 1000 to 10000 nM | 
CCCn1cc(OCC(F)(F)F)c(C(=O)Nc2ccc(Oc3ccnc4cc(OC)c(OC)cc34)c(C(F)(F)F)c2)n1 [Compound 114] | < 100 nM | 1000 to 10000 nM | 
COc1cc2nccc(Oc3ccc(NC(=O)c4nn(C5CCNC5)cc4OCC(F)(F)F)cn3)c2cc1OC (centres unmarked) [Compound 132] | ≥ 500 nM | ≥ 10000 nM | 
CCn1cc(OCC2CCC2)c(C(=O)Nc2ccc(Oc3ccnc4cc(OC)c(OC)cc34)cn2)n1 [Compound 8] | < 100 nM | < 1000 nM | 
COCCOc1cn(CC(C)O)nc1C(=O)Nc1ccc(Oc2ccnc3cc(OC)c(OC)cc23)cn1 (centres unmarked) [Compound 150] | < 100 nM | 1000 to 10000 nM | 
COc1cc2nccc(Oc3ccc(NC(=O)c4nn(C5CCN(C)C5)cc4OCC(F)(F)F)cc3C)c2cc1OC (centres unmarked) [Compound 98] | < 100 nM | 1000 to 10000 nM | 
CCn1cc(OCC(F)(F)F)c(C(=O)Nc2ccc(Oc3ccnc4cc(OC)c(OC)cc34)cn2)n1 [Compound 4] | < 100 nM | < 1000 nM | 1.6 nM

The next lines start with results.

Kd (Mer; [1]) | Structure (SMILES) | IC50 (CSF1R (M-NFS-60 cells)) | Kd (Mer; [2])
< 100 nM | CNCCn1cc(OCC(F)(F)F)c(C(=O)Nc2ccc(Oc3ccnc4cc(OC)c(OC)cc34)cn2)n1 [Compound 11] | < 1000 nM | 
< 100 nM | COCCn1cc(OCC(F)(F)F)c(C(=O)Nc2ccc(Oc3ccnc4cc(OC)c(OC)cc34)nn2)n1 [Compound 126] | 1000 to 10000 nM | 
< 100 nM | CCCn1cc(OCC2COC2)c(C(=O)Nc2ccc(Oc3ccnc4cc(OC)c(OC)cc34)cn2)n1 [Compound 106] | < 1000 nM | 
< 100 nM | COc1cc2nccc(Oc3ccc(NC(=O)c4nn(CCN(C)C)cc4OCC(F)(F)F)nc3)c2cc1OC [Compound 9] | < 1000 nM | 
≥ 500 nM | CNCCn1cc(OCC(F)(F)F)c(C(=O)Nc2ccc(Oc3ccnc4cc(OC)c(OC)cc34)nn2)n1 [Compound 127] | ≥ 10000 nM | 
≥ 500 nM | CCCn1cc(OCC2CNC2)c(C(=O)Nc2ccc(Oc3ccnc4cc(OC)c(OC)cc34)cn2)n1 [Compound 159] | ≥ 10000 nM | 
≥ 500 nM | COc1cc2nccc(Oc3ccc(NC(=O)c4nn(CCN)cc4OCC(F)(F)F)cn3)c2cc1OC [Compound 135] | ≥ 10000 nM | 
100 to 500 nM | CNCCn1cc(OCC(F)(F)F)c(C(=O)Nc2ccc(Oc3ccnc4cc(OC)c(OC)cc34)c(F)c2)n1 [Compound 155] | 1000 to 10000 nM | 
< 100 nM | CCCn1cc(OCCOC)c(C(=O)Nc2ccc(Oc3ccnc4cc(OC)c(OC)cc34)cn2)n1 [Compound 105] | < 1000 nM | 
< 100 nM | COc1cc2nccc(Oc3ccc(NC(=O)c4nn(CCOC5CC5)cc4OCC(F)(F)F)nn3)c2cc1OC [Compound 120] | 1000 to 10000 nM | 
100 to 500 nM | COc1cc2nccc(Oc3ccc(NC(=O)c4nn(CCO)cc4OCC(F)(F)F)cn3)c2cc1OC [Compound 129] | ≥ 10000 nM | 
< 100 nM | COc1cc2nccc(Oc3ccc(NC(=O)c4n[nH]cc4OCC(F)(F)F)nc3)c2cc1OC [Compound 16] | < 1000 nM | 12 nM
< 100 nM | CCCn1cc(OCC(F)F)c(C(=O)Nc2ccc(Oc3ccnc4cc(OC)c(OC)cc34)cn2)n1 [Compound 12] | < 1000 nM | 
